Substitutions are numbered along the chain they refer to. Read-outs that look alike come from different tables or passages of the source.
How the values were obtained:
[1] = biological target: T1, hAR (human androgen receptor, baculovirus/Sf9 generated extracts) (Homo sapiens, UniProt P10275); assay: AR Binding Assay (competitive binding with 3H-DHT tracer); conditions: 1 nM 3H-DHT, one hour at 4° C., mean of multiple tests
T1 construct: made in house; host or cells: baculovirus/Sf9 insect cells (crude extract)
T1 sequence (P10275 1-920): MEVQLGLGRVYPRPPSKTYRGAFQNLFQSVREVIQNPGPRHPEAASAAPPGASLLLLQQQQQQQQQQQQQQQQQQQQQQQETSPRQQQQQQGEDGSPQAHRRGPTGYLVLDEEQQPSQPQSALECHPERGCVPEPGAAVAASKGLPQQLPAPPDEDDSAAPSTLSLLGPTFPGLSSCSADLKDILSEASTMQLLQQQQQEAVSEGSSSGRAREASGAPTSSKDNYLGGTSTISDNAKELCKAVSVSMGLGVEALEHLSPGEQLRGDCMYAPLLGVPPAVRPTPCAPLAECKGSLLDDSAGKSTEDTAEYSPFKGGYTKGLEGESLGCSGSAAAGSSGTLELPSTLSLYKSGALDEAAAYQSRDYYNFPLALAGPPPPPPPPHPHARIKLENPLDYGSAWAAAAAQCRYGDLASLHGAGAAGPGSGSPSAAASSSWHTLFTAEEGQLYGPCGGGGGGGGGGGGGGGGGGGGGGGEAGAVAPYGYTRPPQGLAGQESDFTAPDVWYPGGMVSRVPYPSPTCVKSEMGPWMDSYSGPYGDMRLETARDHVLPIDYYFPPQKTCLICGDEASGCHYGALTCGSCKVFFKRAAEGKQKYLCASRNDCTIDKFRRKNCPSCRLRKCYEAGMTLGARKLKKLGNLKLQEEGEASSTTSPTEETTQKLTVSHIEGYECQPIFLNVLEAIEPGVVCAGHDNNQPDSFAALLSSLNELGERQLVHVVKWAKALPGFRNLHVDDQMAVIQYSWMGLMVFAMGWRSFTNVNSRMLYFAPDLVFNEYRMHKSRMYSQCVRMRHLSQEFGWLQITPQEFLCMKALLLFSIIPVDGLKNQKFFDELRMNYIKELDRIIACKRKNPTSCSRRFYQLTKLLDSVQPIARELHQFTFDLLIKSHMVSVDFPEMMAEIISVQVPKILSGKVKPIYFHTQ
Description: The compounds of Formula I have affinity for the androgen receptor. […] The description below describes how the assay was carried out.
Competitive binding analysis was performed on baculovirus/Sf9 generated hAR extracts in the presence or absence of different concentrations of test agent and a fixed concentration of ^3H-dihydrotestosterone (^3H-DHT) as tracer. This binding assay method is a modification of a protocol previously described (Liao S., et. al., J. Steroid Biochem., 20:11-17, 1984). Briefly, progressively decreasing concentrations of compounds are incubated in the presence of hAR extract (Chang et al., P.N.A.S., Vol. 89, pp. 5546-5950, 1992), hydroxylapatite, and 1 nM ^3H-DHT for one hour at 4° C. Subsequently, the binding reactions are washed three times to completely remove excess unbound ^3H-DHT. hAR bound ^3H-DHT levels are determined in the presence of compounds (i.e. competitive binding) and compared to levels bound when no competitor is present (i.e. maximum binding). Compound binding affinity to the hAR is expressed as the concentration of compound at which one half of the maximum binding is inhibited. Table II below provides the results that were obtained for selected compounds (reported data is the mean of multiple tests as shown below).

[2] = biological target: T2, androgen receptor in MDA-MB453-MMTV clone 54-19 cells (Homo sapiens, UniProt P10275); assay: AR Antagonist Cell Assay (MMTV-luciferase reporter, DHT-induced); format: cell-based; conditions: MDA-MB453-MMTV clone 54-19, 100 pM DHT, 17 hr; mean of multiple tests
T2 sequence (P10275 1-920 Q868H): T1 sequence (P10275 1-920) with Q868H
Description: The compounds ability to antagonize the effects of androgen on the androgen receptor were determined in a whole cell assay as described immediately below.
Cell line: MDA-MB453-MMTV clone 54-19. This cell line is a stable transfected cell line with MDA-MB453 cell background (a human breast tumor cell line expressing androgen receptor). A MMTV minimal promoter containing ARE was first cloned in front of a firefly luciferase reporter gene. Then the cascade was cloned into transfection vector pUV120puro. Electroporation method was used for transfecting MDA-MB-453 cell. Puromycin resistant stable cell line was selected.
Culture medium: DMEM (high glucose, Gibco cat #: 11960-044), 10% FBS, and 1% L-glutamine
Plating medium: DMEM (phenol red free), 10% charcoal treated HyClone serum, 1% L-glutamine
Assay medium: DMEM (phenol red free), 1% charcoal treated HyClone serum, 1% L-glutamine, and 1% penicillin/streptomycin
3× luciferase buffer: 2% beta-mercaptoethanol, 0.6% ATP, 0.0135% luciferine in cell lysis buffer
Cells are maintained in culture medium, splitting cells when they reach 80-90% confluence. To test compounds, 10,000 cells/well are plated to opaque 96 cell culture plate in 100 ul/well plating medium, culture for overnight at 37° C. in cell culture incubator. Carefully remove plating medium, then add 80 ul/well of pre-warmed assay medium, add 10 ul/well testing compound (final concentration at) 1000 nM, 200 nM, 40 nM, 8 nM, 1.6 nM, and 0.32 nM), incubate at 37° C. for 30 minutes. Add 10 ul/well freshly prepared DHT (final concentration at 100 pM) to each well, incubate at 37° C. for 17 hr (overnight). Add 50 ul/well 3× luciferase buffer, incubate at room temperature for 5 minutes, then count on Luminometer. The fold induction over background by 100 pM DHT in the absence of testing compounds is standardized as 100% and experimental result is expressed as percentage of inhibition by testing compounds.
The results are reported as the mean of multiple tests as described below (the numbers of tests are indicated in the footnote). ND denotes that the compound was not tested.

[3] = hAR extract, read-out: AR Binding IC50

Structure (SMILES) | IC50 ([1]; AR Binding IC50, hAR extract) | IC50 [2] | IC50 [1, 3]
CCC(Oc1ccc(C#N)c(C(F)(F)F)c1)c1cccc(O)c1 (racemic) [Example 11, 4-[1-(3-Hydroxyphenyl)propoxy]-2-(trifluoromethyl)benzonitrile] | 11 nM | > 1000 nM | 
CCC(Oc1ccc(C#N)c(C(F)(F)F)c1)c1ccccc1 (stereo not shown) [Example 48, 4-(1-Phenyl-propoxy)-2-trifluoromethyl-benzonitrile] | 38 nM | 345 nM | 
CC(Oc1ccc(C#N)c(C(F)(F)F)c1)c1cccnc1 (racemic) [Example 33, 4-(1-Pyridin-3-yl-ethoxy)-2-trifluoromethyl-benzonitrile] | 192 nM | 63 nM | 
Cc1ccccc1C(C)Oc1ccc(C#N)c(Cl)c1 (stereo not shown) [Example 62] |  | 464 nM | 52 nM
Cc1ccccc1COc1ccc(C#N)c(Cl)c1 [Example 65, 2-Chloro-4-(2-methyl-benzyloxy)-benzonitrile] |  | > 1000 nM | 129 nM
Cc1cccc(C(C)Oc2ccc(C#N)c(C(F)(F)F)c2)c1 (stereo not shown) [Example 51, 4-(1-m-Tolyl-ethoxy)-2-trifluoromethyl-benzonitrile] | 108 nM | > 1000 nM | 
CCC(Oc1ccc(C#N)c(C(F)(F)F)c1)c1cccc(O)c1 (single isomer, unassigned; (-)) [Example 13, (−)4-[1-(3-Hydroxyphenyl)propoxy]-2-(trifluoromethyl)benzonitrile] | 23 nM | 31 nM | 
N#Cc1ccc(OCc2ccccc2)cc1Cl [Example 59, 4-Benzyloxy-2-chloro-benzonitrile] |  | 108 nM | 38 nM
CC(Oc1ccc(C#N)c(C(F)(F)F)c1)c1cccc(Cl)c1 (stereo not shown) [Example 26, 4-[1-(3-Chloro-phenyl)-ethoxy]-2-trifluoromethyl-benzonitrile] | 122 nM | 56 nM | 
CCC(Oc1ccc(C#N)c(C(F)(F)F)c1)c1cccc(O)c1 (single isomer, unassigned; (+)) [Example 12, (+)4-[1-(3-Hydroxyphenyl)propoxy]-2-(trifluoromethyl)benzonitrile] | 19 nM | > 1000 nM | 
CC(Oc1ccc(C#N)c(C(F)(F)F)c1)c1ccccc1 (stereo not shown) [Example 53, 4-(1-Phenyl-ethoxy)-2-trifluoromethyl-benzonitrile] | 8 nM | 55 nM | 
Cc1cccc(COc2ccc(C#N)c(Cl)c2)c1 [Example 64, 2-Chloro-4-(3-methyl-benzyloxy)-benzonitrile] | 74 nM | > 1000 nM | 
CC(Oc1ccc(C#N)c(C(F)(F)F)c1)c1cccc(O)c1 (single isomer, unassigned; (+)) [Example 10, (+)-4-[1-(3-Hydroxyphenyl)ethoxy]-2-(trifluoromethyl)benzonitrile] | 3 nM | ≥ 1000 nM | 
COc1ccccc1COc1ccc(C#N)c(Cl)c1 [Example 67, 2-Chloro-4-(2-methoxy-benzyloxy)-benzonitrile] | 99 nM | 166 nM | 
CCOc1ccccc1COc1ccc(C#N)c(C(F)(F)F)c1 [Example 55, 4-(2-Ethoxy-benzyloxy)-2-trifluoromethyl-benzonitrile] |  | > 1000 nM | 125 nM
Cc1cccc(C(C)Oc2ccc(C#N)c(C(F)(F)F)c2)c1 (stereo not shown) [Example 28, 4-(1-m-Tolyl-ethoxy)-2-trifluoromethyl-benzonitrile] | 50 nM | 573 nM | 
CCCCC(Oc1ccc(C#N)c(C(F)(F)F)c1)c1ccccn1 (stereo not shown) [Example 84, 4-(1-Pyridin-2-yl-pentyloxy)-2-trifluoromethyl-benzonitrile] |  | > 667 nM | 161 nM
CC(Oc1ccc(C#N)c(C(F)(F)F)c1)c1ccccc1F (stereo not shown) [Example 24, 4-[1-(2-Fluoro-phenyl)-ethoxy]-2-trifluoromethyl-benzonitrile] | 79 nM | 826 nM | 
CC(Oc1ccc(C#N)c(C(F)(F)F)c1)c1cccc(C#N)c1 (stereo not shown) [Example 30, 4-[1-(3-Cyano-phenyl)-ethoxy]-2-trifluoromethyl-benzonitrile] | 22 nM | 7 nM | 
CCC(Oc1ccc(C#N)c(C(F)(F)F)c1)c1cncc(O)c1 (stereo not shown) [Example 94, 4-[1-(5-Hydroxy-pyridin-3-yl)-propoxy]-2-trifluoromethyl-benzonitrile] | 75 nM | 202 nM | 
CC(C)(Oc1ccc(C#N)cc1Cl)c1ccccc1 [Example 37, 3-Chloro-4-(1-methyl-1-phenyl-ethoxy)-benzonitrile] |  | > 1000 nM | 184 nM
CC(Oc1ccc(C#N)c(C(F)(F)F)c1)c1ccccn1 (racemic) [Example 35, 4-(1-Pyridin-2-yl-ethoxy)-2-trifluoromethyl-benzonitrile] | 180 nM | 254 nM | 
CCCCCCC(Oc1ccc(C#N)c(C(F)(F)F)c1)c1ccccc1 (stereo not shown) [Example 46, 4-(1-Phenyl-heptyloxy)-2-trifluoromethyl-benzonitrile] |  | > 1000 nM | 204 nM

— patent US20090170886A1 (Pfizer Inc, priority 2005, published 2009)
